Values of other authors as cited in patent US20220331289A1, “Pharmaceutical Composition Comprising an Artemisinin Derivative for Nasal or Pulmonary Delivery” (Cipla Limited, priority 2014, published 2022).

Conditions: oil-based intramuscular injection formulation

In the case of CO[C@H]1O[C@@H]2O[C@@]3(C)CC[C@H]4[C@H](C)CC[C@@H]([C@H]1C)[C@@]24OO3 [artemether], the absorption is listed as “slowly and erratically absorbed”.
